{"source": "patent US9289430B2", "about": "“Compounds and methods for inhibiting phosphate transport” (Ardelyx, Inc., priority 2010, dated 2016)", "key": {"[1]": {"experiment": "Fecal recovery of orally administered compounds", "format": "in vivo, Sprague-Dawley rats", "conditions": "rats, oral gavage, nominal 10 mg/kg (actual 7.6-11 mg/kg), feces 0-48 hr after dosing", "protocol": "Quantitative determination of test compound level in feces after oral gavage was performed using the same set of animals used to determine test compound concentration in plasma (Example 30). The animals were kept in metabolic cages and feces were collected from the time of dosing until 48 hr after dosing. Upon collection, feces was dried by lyophilization and ground to a visually homogenous powder. Duplicate samples of ground feces from each individual animal were weighed out and extracted using organic solvent. Extracted samples were then diluted into mobile phase and test compound levels were quantitatively determined by LC-MS/MS analysis as described in “Example 30” except that the standard curve was prepared in a feces matrix. Extraction conditions were not optimized for individual compounds, and thus may represent a minimal level of recovery."}, "[2]": {"biological_target": "T1, rat NaP2b (SLC34A2) (Rattus norvegicus, UniProt Q9JJ09)", "T1 construct": "host or cells: HEK293", "T1 sequence (Q9JJ09 1-695)": "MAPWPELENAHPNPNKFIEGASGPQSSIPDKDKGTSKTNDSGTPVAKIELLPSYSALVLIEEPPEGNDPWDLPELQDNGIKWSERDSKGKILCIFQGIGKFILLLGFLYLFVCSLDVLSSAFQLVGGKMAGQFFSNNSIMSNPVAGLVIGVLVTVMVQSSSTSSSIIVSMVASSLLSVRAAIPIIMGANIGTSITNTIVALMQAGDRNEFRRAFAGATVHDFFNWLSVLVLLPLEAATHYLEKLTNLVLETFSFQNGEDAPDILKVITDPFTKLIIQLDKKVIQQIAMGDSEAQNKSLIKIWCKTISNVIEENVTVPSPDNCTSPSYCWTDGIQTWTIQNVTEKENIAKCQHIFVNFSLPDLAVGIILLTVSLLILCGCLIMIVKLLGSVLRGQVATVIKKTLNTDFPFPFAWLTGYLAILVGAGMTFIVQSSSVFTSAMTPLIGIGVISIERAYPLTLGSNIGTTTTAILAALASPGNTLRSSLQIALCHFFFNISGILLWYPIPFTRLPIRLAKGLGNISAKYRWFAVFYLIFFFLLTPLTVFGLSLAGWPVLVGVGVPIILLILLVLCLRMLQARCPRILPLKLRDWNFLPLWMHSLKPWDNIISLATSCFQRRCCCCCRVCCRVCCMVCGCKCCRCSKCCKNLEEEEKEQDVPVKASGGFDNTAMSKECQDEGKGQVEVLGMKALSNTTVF", "experiment": "NaP2b-mediated Pi transport: 33P phosphate uptake into transfected HEK293 cells", "format": "cell-based", "conditions": "100 uM KH2PO4, PiT-silencing agent, read-out: pIC50 range for rat Nap2b (converted)", "protocol": "(§1) Materials. HEK293 cells were obtained from the American Type Culture collection and propagated per their instructions. Expression clones for rat and human NaP2b (SLC34A2) were obtained from Open Biosystems (Catalog numbers MRN1768-9510282, and MHS1010-99823026, respectively). The sequence of the human protein was mutated to insert a threonine after residue 37, and to introduce a N39D mutation.\n(§2) Inhibition of Pi Transport. The rate of phosphate (Pi) uptake into HEK293 cells was measured using a modification of the method described by Mohrmann et al. (Mohrmann, I., Mohrmann, M., Biber, J., and Murer, H. (1986) Am. J. Phys. 250(3 Pt 1):G323-30.) Transfected HEK293 cells were treated with a pharmacological agent to minimize endogenous PiT-mediated phosphate transport activity, such that the only remaining sodium-dependent phosphate transport activity is that which was bestowed by introduction of the NaP2b genes.\n(§3) Cells were seeded into 96-well plates at 25,000 cells/well and cultured overnight. Lipofectamine 2000 (Invitrogen) was used to introduce the NaP2b cDNA, and the cells were allowed to approach confluence during a second overnight incubation. […] Cells were then overlayed with either choline uptake buffer or sodium uptake buffer (14 mM Tris, 137 mM sodium chloride, 5.4 mM KCl, 2.8 mM CaCl2, 1.2 mM MgSO4, 100 uM KH2PO4, PiT-silencing agent, 1 mg/mL Bovine Serum Albumin, pH 7.4) containing 6-9 uCi/mL ^33P orthophosphoric acid (Perkin Elmer) and test compound. Each compound was tested at twelve concentrations ranging from 0.1 nM to 30 uM. Assays were run in duplicate.\n(§4) After incubation for 3-30 minutes at room temperature, assay mixtures were removed, and the cells were washed twice with ice cold stop solution (137 mM sodium chloride, 14 mM Tris, pH 7.4). Cells were lysed by addition of 20 μL 0.1% Tween 80 followed by 100 μL scintillation fluid, and counted using a TopCount (Perkin Elmer).\n(§5) pIC50 (the negative log of the IC50) values of the test compounds were calculated using GraphPad Prism."}, "[3]": {"biological_target": "T2, human NaP2b (SLC34A2) (Homo sapiens, UniProt O95436)", "T2 construct": "host or cells: HEK293", "T2 sequence (O95436 1-690)": "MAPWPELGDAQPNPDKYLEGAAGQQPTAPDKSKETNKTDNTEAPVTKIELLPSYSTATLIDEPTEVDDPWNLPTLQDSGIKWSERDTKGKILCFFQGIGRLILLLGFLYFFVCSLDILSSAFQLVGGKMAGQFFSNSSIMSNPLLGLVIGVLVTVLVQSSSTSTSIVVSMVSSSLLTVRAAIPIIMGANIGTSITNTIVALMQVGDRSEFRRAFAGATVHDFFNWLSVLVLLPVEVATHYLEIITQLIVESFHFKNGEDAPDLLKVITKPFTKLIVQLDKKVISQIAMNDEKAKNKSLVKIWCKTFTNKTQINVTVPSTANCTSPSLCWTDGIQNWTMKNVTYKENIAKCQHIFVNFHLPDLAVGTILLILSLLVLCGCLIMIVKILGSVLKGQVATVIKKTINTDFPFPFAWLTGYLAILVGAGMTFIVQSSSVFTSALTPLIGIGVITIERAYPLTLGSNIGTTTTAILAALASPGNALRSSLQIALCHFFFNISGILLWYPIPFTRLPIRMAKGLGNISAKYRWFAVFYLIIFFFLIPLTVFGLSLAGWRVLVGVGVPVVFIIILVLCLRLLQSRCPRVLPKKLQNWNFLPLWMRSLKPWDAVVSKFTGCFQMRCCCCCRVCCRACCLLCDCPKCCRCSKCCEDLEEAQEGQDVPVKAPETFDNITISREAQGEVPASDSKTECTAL", "experiment": "NaP2b-mediated Pi transport: 33P phosphate uptake into transfected HEK293 cells", "format": "cell-based", "conditions": "human protein with threonine inserted after residue 37 and N39D, 100 uM KH2PO4, read-out: pIC50 range for human Nap2b (converted)", "protocol": "as §1, §2, §3, §4, §5"}, "[4]": {"experiment": "Stability in simulated gastric and intestinal fluid", "format": "in vitro ADME", "conditions": "6 hr, 1-20 μM", "protocol": "Test compounds were incubated at 1-20 μM in simulated gastric fluid (SGF; standard USP solution with 3 mg/mL pepsin) or simulated intestinal fluid (SIF; standard USP solution with 3 mg/mL pancreatin) for 3 hr or 6 hr. HPLC-UV or HPLC-MS were used to determine test compound levels using peak area %. Results (Table 5) were reported as the percentage of test compound remaining after incubation in a given condition relative to test compound present at t=0 in the same condition."}, "[5]": {"test_system": "Uptake of Phosphorus from the Intestine", "experiment": "In vivo co-dosing in chow, urinary P output relative to P consumed", "set-up": "species or system Sprague-Dawley rats", "conditions": "rats, compound in chow, nominal 100 mg/kg/day (mean actual 104-105 mg/kg/day), mean of 24-96 h, vs control", "source_text": "Male, 7-week-old Sprague-Dawley rats (Charles-River laboratories international, Hollister, Calif.) were allowed to acclimate for a minimum of 3 days. The experiment was initiated by switching animals to a synthetic diet (0.6% phosphorus and 0.6% calcium, Harlan Teklad TD.84122) for four days. After this time, the animals were placed into metabolic cages for daily monitoring of food and water consumption, as well as urine and fecal collections. Test compounds were incorporated into the powdered diet listed above containing 3% chocolate flavoring (w/w, BioSery #7345) at 1.3 mg test compound per gram of diet to achieve an average daily nominal dose of 100 mg/kg/day. The actual dose received by each animal was later determined by measuring prepared diet consumption and body weight. Urine samples were collected in three daily periods from 24-48, 48-72, and 72-96 hours of drug dosing. […] Phosphorous levels in the urine were determined by anion exchange chromatography using a Dionex ICS-3000 ion chromatography system. […] Elution of urine phosphate ions was monitored via conductivity detector and reported as ppm relative to a standard ion solution containing phosphate. Daily urinary P output relative to the P consumed in the prepared diet for each animal was calculated. […] The differences between the means of control and treated groups were evaluated by t tests. […]"}}, "data": [{"smiles": "CN(CCOCCOCCOCCC(=O)O)C(=O)c1cccc(C(=O)Nc2ccc(N3CCCCC3)cc2C(=O)Nc2ccn(-c3cccc(C(F)(F)F)c3)n2)c1", "note": "[Example 15, 2-Methyl-1-oxo-1-(3-((4-(piperidin-1-yl)-2-((1-(3-(trifluoromethyl)phenyl)-1H-pyrazol-3-yl)carbamoyl)phenyl)carbamoyl)phenyl)-5,8,11-trioxa-2-azatetradecan-14-oic acid]", "values": [{"measurement": "% recovered in feces", "setting": "[1]", "value": 17, "unit": "%"}, {"measurement": "IC50", "setting": "[2]", "value": "1 to 7.94", "unit": "µM"}, {"measurement": "IC50", "setting": "[3]", "value": "< 1", "unit": "µM"}, {"measurement": "% remaining, SGF", "setting": "[4]; simulated gastric fluid with 3 mg/mL pepsin", "value": 100, "unit": "%"}, {"measurement": "% remaining, SIF", "setting": "[4]; simulated intestinal fluid with 3 mg/mL pancreatin", "value": 97, "unit": "%"}, {"measurement": "Mean % inhibition Urine Pout/P consumed", "setting": "[5]", "value": 9, "unit": "%"}]}]}
